Measurements from ChEMBL document CHEMBL1157172, “Rational design, synthesis, and in vivo evaluation of the antileukemic activity of six new alkylating steroidal esters” (Bioorg Med Chem, 2008).
The source made the active and inactive calls. No cut-off for these calls is given here.

Columns and labels:
[1] = tested on: P388; test: Antitumor activity in BDF1 mouse bearing P388 cells assessed as mean survival days at 12.5 mg/kg/day, ip; format: functional; details: route intraperitoneal
[2] = tested on: P388; test: Increase in median life span in BDF1 mouse bearing P388 cells at 12.5 mg/kg/day, ip relative to corn oil; format: functional; details: route intraperitoneal
[3] = tested on: P388; test: Antitumor activity in BDF1 mouse bearing P388 cells assessed as number of cured mouse at 12.5 mg/kg/day, ip after 90 days; format: functional, organism-based
[4] = tested on: L1210; test: Increase in median life span in BDF1 mouse L1210 cells at 12.5 mg/kg/day, ip relative to corn oil; format: functional; details: route intraperitoneal
[5] = (§1) Acute toxicity in ip dosed BALB/c mouse after 30 days; format: organism-based; details: BALB/c, in vivo
[6] = tested on: Mus musculus; test: as §1; format: organism-based; details: in vivo, 720 h
[7] = tested on: L1210; test: Antitumor activity in BDF1 mouse L1210 cells assessed as number of cured mouse at 12.5 mg/kg/day, ip after 90 days; format: functional, organism-based
[8] = tested on: L1210; test: Antitumor activity in BDF1 mouse L1210 cells assessed as mean survival days at 12.5 mg/kg/day, ip; format: functional; details: route intraperitoneal
[9] = tested on: L1210; test: Increase in median life span in BDF1 mouse L1210 cells at 7.5 mg/kg/day, ip relative to corn oil; format: functional; details: route intraperitoneal
[10] = tested on: P388; test: Increase in median life span in BDF1 mouse bearing P388 cells at 7.5 mg/kg/day, ip relative to corn oil; format: functional; details: route intraperitoneal
[11] = tested on: L1210; test: Antitumor activity in BDF1 mouse L1210 cells assessed as number of cured mouse at 7.5 mg/kg/day, ip after 90 days; format: functional, organism-based
[12] = tested on: P388; test: Antitumor activity in BDF1 mouse bearing P388 cells assessed as number of cured mouse at 7.5 mg/kg/day, ip after 90 days; format: functional, organism-based
[13] = tested on: P388; test: Antitumor activity in BDF1 mouse bearing P388 cells assessed as mean survival days at 7.5 mg/kg/day, ip; format: functional; details: route intraperitoneal
[14] = tested on: L1210; test: Antitumor activity in BDF1 mouse L1210 cells assessed as mean survival days at 7.5 mg/kg/day, ip; format: functional; details: route intraperitoneal
[15] = tested on: L1210; test: Increase in median life span in BDF1 mouse L1210 cells at 120 mg/kg/day, ip relative to corn oil; format: functional; details: route intraperitoneal
[16] = tested on: L1210; test: Antitumor activity in BDF1 mouse L1210 cells assessed as mean survival days at 120 mg/kg/day, ip; format: functional; details: route intraperitoneal
[17] = tested on: P388; test: Antitumor activity in BDF1 mouse bearing P388 cells assessed as mean survival days at 120 mg/kg/day, ip; format: functional; details: route intraperitoneal
[18] = tested on: L1210; test: Antitumor activity in BDF1 mouse L1210 cells assessed as number of cured mouse at 120 mg/kg/day, ip after 90 days; format: functional, organism-based
[19] = tested on: P388; test: Increase in median life span in BDF1 mouse bearing P388 cells at 120 mg/kg/day, ip relative to corn oil; format: functional; details: route intraperitoneal
[20] = tested on: P388; test: Increase in median life span in BDF1 mouse bearing P388 cells at 200 mg/kg/day, ip relative to corn oil; format: functional; details: route intraperitoneal
[21] = tested on: L1210; test: Antitumor activity in BDF1 mouse L1210 cells assessed as mean survival days at 200 mg/kg/day, ip; format: functional; details: route intraperitoneal
[22] = tested on: L1210; test: Antitumor activity in BDF1 mouse L1210 cells assessed as number of cured mouse at 200 mg/kg/day, ip after 90 days; format: functional, organism-based
[23] = tested on: P388; test: Antitumor activity in BDF1 mouse bearing P388 cells assessed as mean survival days at 200 mg/kg/day, ip; format: functional; details: route intraperitoneal
[24] = tested on: L1210; test: Increase in median life span in BDF1 mouse L1210 cells at 200 mg/kg/day, ip relative to corn oil; format: functional; details: route intraperitoneal
[25] = tested on: P388; test: Antitumor activity in BDF1 mouse bearing P388 cells assessed as number of cured mouse at 200 mg/kg/day, ip after 90 days; format: functional, organism-based
[26] = tested on: P388; test: Antitumor activity in BDF1 mouse bearing P388 cells assessed as mean survival days at 50 mg/kg/day, ip; format: functional; details: route intraperitoneal
[27] = tested on: P388; test: Increase in median life span in BDF1 mouse bearing P388 cells at 50 mg/kg/day, ip relative to corn oil; format: functional; details: route intraperitoneal
[28] = tested on: L1210; test: Antitumor activity in BDF1 mouse L1210 cells assessed as mean survival days at 50 mg/kg/day, ip; format: functional; details: route intraperitoneal
[29] = tested on: L1210; test: Antitumor activity in BDF1 mouse L1210 cells assessed as number of cured mouse at 50 mg/kg/day, ip after 90 days; format: functional, organism-based
[30] = tested on: L1210; test: Increase in median life span in BDF1 mouse L1210 cells at 50 mg/kg/day, ip relative to corn oil; format: functional; details: route intraperitoneal
[31] = tested on: P388; test: Antitumor activity in BDF1 mouse bearing P388 cells assessed as number of cured mouse at 50 mg/kg/day, ip after 90 days; format: functional, organism-based
[32] = tested on: P388; test: Antitumor activity in BDF1 mouse bearing P388 cells assessed as number of cured mouse at 22 mg/kg/day, ip after 90 days; format: functional, organism-based
[33] = tested on: P388; test: Antitumor activity in BDF1 mouse bearing P388 cells assessed as mean survival days at 22 mg/kg/day, ip; format: functional; details: route intraperitoneal
[34] = tested on: P388; test: Increase in median life span in BDF1 mouse bearing P388 cells at 22 mg/kg/day, ip relative to corn oil; format: functional; details: route intraperitoneal
[35] = tested on: L1210; test: Increase in median life span in BDF1 mouse L1210 cells at 22 mg/kg/day, ip relative to corn oil; format: functional; details: route intraperitoneal
[36] = tested on: L1210; test: Antitumor activity in BDF1 mouse L1210 cells assessed as mean survival days at 22 mg/kg/day, ip; format: functional; details: route intraperitoneal
[37] = tested on: L1210; test: Antitumor activity in BDF1 mouse L1210 cells assessed as number of cured mouse at 22 mg/kg/day, ip after 90 days; format: functional, organism-based
[38] = tested on: L1210; test: Antitumor activity in BDF1 mouse L1210 cells assessed as number of cured mouse at 30 mg/kg/day, ip after 90 days; format: functional, organism-based
[39] = tested on: L1210; test: Antitumor activity in BDF1 mouse L1210 cells assessed as mean survival days at 30 mg/kg/day, ip; format: functional; details: route intraperitoneal
[40] = tested on: L1210; test: Increase in median life span in BDF1 mouse L1210 cells at 30 mg/kg/day, ip relative to corn oil; format: functional; details: route intraperitoneal
[41] = tested on: P388; test: Increase in median life span in BDF1 mouse bearing P388 cells at 30 mg/kg/day, ip relative to corn oil; format: functional; details: route intraperitoneal
[42] = tested on: P388; test: Antitumor activity in BDF1 mouse bearing P388 cells assessed as mean survival days at 30 mg/kg/day, ip; format: functional; details: route intraperitoneal

CC(=O)N[C@H]1CC[C@H]2[C@@H]3C(=O)C=C4C[C@@H](OC(=O)Cc5ccc(N(CCCl)CCCl)cc5)CC[C@]4(C)[C@H]3CC[C@]12C
Survival [1]: 29.8 days
Activity [2]: 314%
Activity [3]: inactive
Activity [4]: 243%
LD50 at 720 h [5]: 75 mg/kg
LD10 [6]: 25 mg/kg
Activity [7]: inactive
Survival [8]: 26.3 days

O=C(O)CCCc1ccc(N(CCCl)CCCl)cc1 [CHLORAMBUCIL]
Activity [9]: 114%
Activity [10]: 155%
Activity [11]: inactive
Activity [12]: inactive
Survival [13]: 14.7 days
Survival [14]: 12.3 days
LD50 at 720 h [5]: 24 mg/kg
LD10 [6]: 15 mg/kg

CC(=O)N[C@H]1CC[C@H]2[C@@H]3NC(=O)C=C4C[C@@H](OC(=O)c5ccc(C)c(N(CCCl)CCCl)c5)CC[C@]4(C)[C@H]3CC[C@]12C
Activity [15]: 189.8%
Survival [16]: 20.5 days
Survival [17]: 28.5 days
Activity [18]: inactive
Activity [19]: 300%
LD50 at 720 h [5]: 280 mg/kg
LD10 [6]: 240 mg/kg

CC(=O)N[C@H]1CC[C@H]2[C@@H]3C(=O)C=C4C[C@@H](OC(=O)c5ccc(C)c(N(CCCl)CCCl)c5)CC[C@]4(C)[C@H]3CC[C@]12C
Activity [20]: 153%
Survival [21]: 13.7 days
Activity [22]: inactive
Survival [23]: 14.6 days
Activity [24]: 127%
Activity [25]: inactive
LD50 at 720 h [5]: 600 mg/kg
LD10 [6]: 400 mg/kg

CC(=O)N[C@H]1CC[C@H]2[C@@H]3NC(=O)C=C4C[C@@H](OC(=O)CCCc5ccc(N(CCCl)CCCl)cc5)CC[C@]4(C)[C@H]3CC[C@]12C
Survival [26]: 22 days
Activity [27]: 231%
Survival [28]: 15.2 days
Activity [29]: inactive
Activity [30]: 140.7%
LD50 at 720 h [5]: 180 mg/kg
LD10 [6]: 100 mg/kg
Activity [31]: inactive

CC(=O)N[C@H]1CC[C@H]2[C@@H]3C(=O)C=C4C[C@@H](OC(=O)CCCc5ccc(N(CCCl)CCCl)cc5)CC[C@]4(C)[C@H]3CC[C@]12C
Activity [32]: inactive
Survival [33]: 18.8 days
Activity [34]: 198%
Activity [35]: 150%
Survival [36]: 16.2 days
Activity [37]: inactive
LD50 at 720 h [5]: 87 mg/kg
LD10 [6]: 44 mg/kg

CC(=O)N[C@H]1CC[C@H]2[C@@H]3NC(=O)C=C4C[C@@H](OC(=O)Cc5ccc(N(CCCl)CCCl)cc5)CC[C@]4(C)[C@H]3CC[C@]12C
Activity [38]: inactive
Survival [39]: 15.6 days
Activity [40]: 144.4%
Activity [41]: 221%
Survival [42]: 21 days
LD50 at 720 h [5]: 80 mg/kg
LD10 [6]: 60 mg/kg
